Our source for the IC50 values is patent US20230295142A1, “NOVEL COMPOUNDS AS HISTONE DEACETYLASE 6 INHIBITOR, AND PHARMACEUTICAL COMPOSITION COMPRISING THE SAME” (CHONG KUN DANG PHARMACEUTICAL CORP., priority 2020, published 2023).

SMILES strings stand for the structures.

One experiment addresses HDAC6 human recombinant (Homo sapiens (Human), UniProt Q9UBN7). In words: HDAC6 enzyme activity inhibition (fluorimetric, in vitro). The format is biochemical. Conditions: samples at 0.1, 1, 10, 100 and 1000 nM; 37° C. 60 minutes. Here is the method: (§1) A HDAC enzyme inhibitory capacity of a test material was measured by using HDAC1 Fluorimetric Drug Discovery Assay Kit (Enzolifesciences: BML-AK511) and HDAC6 human recombinant (Calbiochem: 382180). For a HDAC1 assay, samples were treated at a concentration of 100, 1000 and 10000 nM. For a HDAC6 assay, samples were treated at a concentration of 0.1, 1, 10, 100 and 1000 nM. After the above sample treatment, a reaction was continued at 37° C. for 60 minutes, treated with a developer, and subjected to reaction at 37° C. for 30 minutes, after which fluorescence intensity (Ex 390, Em 460) was measured by using FlexStatin3 (Molecular device).

For the next experiment, the target named is HDAC1 (Homo sapiens (Human), UniProt Q13547). In words: HDAC1 enzyme activity inhibition (HDAC1 Fluorimetric Drug Discovery Assay Kit). The format is biochemical. Conditions: samples at 100, 1000 and 10000 nM; 37° C. 60 minutes. Here is the method:
as §1

HDAC1, sequence (Q13547 whole entry): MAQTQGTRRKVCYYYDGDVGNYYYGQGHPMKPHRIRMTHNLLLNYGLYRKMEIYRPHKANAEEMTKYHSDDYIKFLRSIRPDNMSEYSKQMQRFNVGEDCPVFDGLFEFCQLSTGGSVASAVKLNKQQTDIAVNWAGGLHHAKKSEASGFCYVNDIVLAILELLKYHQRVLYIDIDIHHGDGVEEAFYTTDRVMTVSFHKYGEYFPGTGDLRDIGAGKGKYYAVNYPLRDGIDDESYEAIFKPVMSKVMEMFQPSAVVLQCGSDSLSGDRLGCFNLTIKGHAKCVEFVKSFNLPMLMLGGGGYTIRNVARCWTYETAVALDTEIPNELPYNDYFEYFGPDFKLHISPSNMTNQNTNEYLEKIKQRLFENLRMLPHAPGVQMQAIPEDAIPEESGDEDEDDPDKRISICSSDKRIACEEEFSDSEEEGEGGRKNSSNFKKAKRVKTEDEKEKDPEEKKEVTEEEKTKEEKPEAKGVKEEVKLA
HDAC6 human recombinant, sequence (Q9UBN7 whole entry): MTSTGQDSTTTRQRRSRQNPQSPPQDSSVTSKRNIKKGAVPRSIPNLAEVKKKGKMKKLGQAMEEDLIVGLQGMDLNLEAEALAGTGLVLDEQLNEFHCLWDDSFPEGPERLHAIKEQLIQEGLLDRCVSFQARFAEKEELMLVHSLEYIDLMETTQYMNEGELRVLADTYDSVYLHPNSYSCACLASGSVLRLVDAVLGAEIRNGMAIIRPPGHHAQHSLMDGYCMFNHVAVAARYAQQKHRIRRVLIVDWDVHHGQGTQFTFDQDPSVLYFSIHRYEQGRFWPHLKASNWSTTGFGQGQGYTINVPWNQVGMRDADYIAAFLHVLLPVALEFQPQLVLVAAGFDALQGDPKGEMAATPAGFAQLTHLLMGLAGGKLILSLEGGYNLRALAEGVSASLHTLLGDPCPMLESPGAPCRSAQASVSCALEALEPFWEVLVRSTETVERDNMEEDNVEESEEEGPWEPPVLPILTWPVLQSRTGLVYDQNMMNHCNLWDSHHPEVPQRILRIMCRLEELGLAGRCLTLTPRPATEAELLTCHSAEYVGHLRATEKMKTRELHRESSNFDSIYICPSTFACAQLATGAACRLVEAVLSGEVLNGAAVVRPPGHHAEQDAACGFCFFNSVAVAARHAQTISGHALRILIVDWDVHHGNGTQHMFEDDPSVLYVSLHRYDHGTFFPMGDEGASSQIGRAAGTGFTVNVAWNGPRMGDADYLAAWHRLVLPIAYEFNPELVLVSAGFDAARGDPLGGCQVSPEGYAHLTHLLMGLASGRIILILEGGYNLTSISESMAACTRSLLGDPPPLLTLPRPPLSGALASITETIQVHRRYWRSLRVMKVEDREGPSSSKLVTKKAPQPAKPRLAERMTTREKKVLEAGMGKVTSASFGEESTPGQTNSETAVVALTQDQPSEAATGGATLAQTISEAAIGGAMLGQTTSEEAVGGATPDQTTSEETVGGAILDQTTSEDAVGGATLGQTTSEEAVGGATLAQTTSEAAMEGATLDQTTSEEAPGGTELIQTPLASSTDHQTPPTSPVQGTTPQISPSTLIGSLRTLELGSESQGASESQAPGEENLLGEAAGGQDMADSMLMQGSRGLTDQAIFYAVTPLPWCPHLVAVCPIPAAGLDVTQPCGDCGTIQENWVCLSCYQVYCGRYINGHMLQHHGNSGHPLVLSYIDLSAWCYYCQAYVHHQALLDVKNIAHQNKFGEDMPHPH

The IC50 is the concentration needed to halve the response being measured. Take `CN1CCC(c2cccc(N3C(=O)N(Cc4ccc(-c5nnc(C(F)F)o5)cn4)C(=O)C3(C)C)c2)CC1` [Compound 20, 3-((5-(5-(difluoromethyl)-1,3,4-oxadiazol-2-yl)pyridin-2-yl)methyl)-5,5-dimethyl-1-(3-(1-methylpiperidin-4-yl)phenyl)imidazolidin-2,4-dione]: the figures for the IC50 at HDAC6 human recombinant and on HDAC1 were 90 nM and more than 10000 nM, respectively.

As to `CN1CC2(C1)C(=O)N(Cc1ccc(-c3nnc(C(F)F)o3)cn1)C(=O)N2c1ccccc1` [Compound 21, 7-((5-(5-(difluoromethyl)-1,3,4-oxadiazol-2-yl)pyridin-2-yl)methyl)-2-methyl-5-phenyl-2,5,7-triazaspiro[3.4]octan-6,8-dione], the values for the IC50 on HDAC6 human recombinant and at HDAC1 were 241 nM and more than 10000 nM, respectively.

Consider `CC(C)N1CC2(C1)C(=O)N(Cc1ccc(-c3nnc(C(F)F)o3)cn1)C(=O)N2c1ccccc1` [Compound 22, 7-((5-(5-(difluoromethyl)-1,3,4-oxadiazol-2-yl)pyridin-2-yl)methyl)-2-isopropyl-5-phenyl-2,5,7-triazaspiro[3.4]octan-6,8-dione], for which the IC50 on HDAC6 human recombinant was 191 nM; on HDAC1 it was more than 10000 nM.

Regarding `CC(=O)N1CC2(C1)C(=O)N(Cc1ccc(-c3nnc(C(F)F)o3)cn1)C(=O)N2c1ccccc1` [Compound 23, 2-acetyl-7-((5-(5-(difluoromethyl)-1,3,4-oxadiazol-2-yl)pyridin-2-yl)methyl)-5-phenyl-2,5,7-triazaspiro[3.4]octan-6,8-dione], the IC50 is 369 nM on HDAC6 human recombinant and more than 10000 nM on HDAC1.

As to `O=C1N(Cc2ccc(-c3nnc(C(F)F)o3)cn2)C(=O)C2(CCC2)N1c1ccccc1` [Compound 24, 7-((5-(5-(difluoromethyl)-1,3,4-oxadiazol-2-yl)pyridin-2-yl)methyl)-5-phenyl-5,7-diazaspiro[3.4]octan-6,8-dione], the IC50 is 56 nM at HDAC6 human recombinant and more than 10000 nM against HDAC1.

`CC1(C)C(=O)N(Cc2ccc(-c3nnc(C(F)F)o3)cn2)C(=O)N1c1ccc(-c2ccoc2)cc1` [Compound 25, 3-((5-(5-(difluoromethyl)-1,3,4-oxadiazol-2-yl)pyridin-2-yl)methyl)-1-(4-(furan-3-yl)phenyl)-5,5-dimethylimidazolidin-2,4-dione]: the figures for the IC50 at HDAC6 human recombinant and against HDAC1 were 106 nM and more than 10000 nM, respectively.

As for `CC1(C)C(=O)N(Cc2ccc(-c3nnc(C(F)F)o3)cn2)C(=O)N1c1ccc(-c2ccncc2)cc1` [Compound 26, 3-((5-(5-(difluoromethyl)-1,3,4-oxadiazol-2-yl)pyridin-2-yl)methyl)-5,5-dimethyl-1-(4-(pyridin-4-yl)phenyl)imidazolidin-2,4-dione], the IC50 on HDAC6 human recombinant was 48 nM; on HDAC1 it was more than 10000 nM.

In the case of `CC1(C)C(=O)N(Cc2ccc(-c3nnc(C(F)F)o3)cn2)C(=O)N1c1ccc(-c2cccnc2)cc1` [Compound 27, 3-((5-(5-(difluoromethyl)-1,3,4-oxadiazol-2-yl)pyridin-2-yl)methyl)-5,5-dimethyl-1-(4-(pyridin-3-yl)phenyl)imidazolidin-2,4-dione], the figures for the IC50 at HDAC6 human recombinant and at HDAC1 were 55 nM and more than 10000 nM, respectively.

`CC1(C)C(=O)N(Cc2ccc(-c3nnc(C(F)F)o3)cn2)C(=O)N1c1ccc(-c2cccc(F)c2)cc1` [Compound 28, 3-((5-(5-(difluoromethyl)-1,3,4-oxadiazol-2-yl)pyridin-2-yl)methyl)-1-(3′-fluoro-[1,1′-biphenyl]-4-yl)-5,5-dimethylimidazolidin-2,4-dione]: the IC50 at HDAC6 human recombinant was 168 nM; at HDAC1, more than 10000 nM.

`CC1(C)C(=O)N(Cc2ccc(-c3nnc(C(F)F)o3)cn2)C(=O)N1c1ccc(-c2ccccc2F)cc1` [Compound 29, 3-((5-(5-(difluoromethyl)-1,3,4-oxadiazol-2-yl)pyridin-2-yl)methyl)-1-(2′-fluoro-[1,1′-biphenyl]-4-yl)-5,5-dimethylimidazolidin-2,4-dione]: the values for the IC50 on HDAC6 human recombinant and against HDAC1 were 165 nM and more than 10000 nM, respectively.

For the compound `CC(C)(C)OC(=O)n1ccc2c(N3C(=O)N(Cc4ccc(-c5nnc(C(F)F)o5)cn4)C(=O)C3(C)C)cccc21` [Compound 30, tert-butyl 4-(3-((5-(5-(difluoromethyl)-1,3,4-oxadiazol-2-yl)pyridin-2-yl)methyl)-5,5-dimethyl-2,4-dioxoimidazolidin-1-yl)-1H-indol-1-carboxylate], the values for the IC50 at HDAC6 human recombinant and against HDAC1 were 578 nM and more than 10000 nM, respectively.

As for `CC(C)(C)OC(=O)N1CCc2c1cccc2N1C(=O)N(Cc2ccc(-c3nnc(C(F)F)o3)cn2)C(=O)C1(C)C` [Compound 31, tert-butyl 4-(3-((5-(5-(difluoromethyl)-1,3,4-oxadiazol-2-yl)pyridin-2-yl)methyl)-5,5-dimethyl-2,4-dioxoimidazolidin-1-yl)indolin-1-carboxylate], the IC50 on HDAC6 human recombinant is 316 nM; on HDAC1, more than 10000 nM.

As for `CC1(C)C(=O)N(Cc2ccc(-c3nnc(C(F)F)o3)cn2)C(=O)N1c1cccc2[nH]ccc12` [Compound 32, 3-((5-(5-(difluoromethyl)-1,3,4-oxadiazol-2-yl)pyridin-2-yl)methyl)-1-(1H-indol-4-yl)-5,5-dimethylimidazolidin-2,4-dione], the IC50 at HDAC6 human recombinant was 55 nM; against HDAC1 it was more than 10000 nM.

Regarding `CC1(C)C(=O)N(Cc2ccc(-c3nnc(C(F)F)o3)cn2)C(=O)N1c1cccc2c1CCN2` [Compound 33, 3-((5-(5-(difluoromethyl)-1,3,4-oxadiazol-2-yl)pyridin-2-yl)methyl)-1-(indolin-4-yl)-5,5-dimethylimidazolidin-2,4-dione], the IC50 at HDAC6 human recombinant was 58 nM; against HDAC1, more than 10000 nM.

With `CC1(C)C(=O)N(Cc2ccc(-c3nnc(C(F)F)o3)cn2)C(=O)N1c1cccc([N+](=O)[O-])c1` [Compound 34, 3-((5-(5-(difluoromethyl)-1,3,4-oxadiazol-2-yl)pyridin-2-yl)methyl)-5,5-dimethyl-1-(3-nitrophenyl)imidazolidin-2,4-dione], the IC50 on HDAC6 human recombinant is 46 nM; against HDAC1 it was more than 10000 nM.

As to `CC1(C)C(=O)N(Cc2ccc(-c3nnc(C(F)F)o3)cn2)C(=O)N1c1cccc(N)c1` [Compound 35, 1-(3-aminophenyl)-3-((5-(5-(difluoromethyl)-1,3,4-oxadiazol-2-yl)pyridin-2-yl)methyl)-5,5-dimethylimidazolidin-2,4-dione], the IC50 on HDAC6 human recombinant was 52 nM; on HDAC1, more than 10000 nM.

On to `CC(=O)Nc1cccc(N2C(=O)N(Cc3ccc(-c4nnc(C(F)F)o4)cn3)C(=O)C2(C)C)c1` [Compound 36, N-(3-(3-((5-(5-(difluoromethyl)-1,3,4-oxadiazol-2-yl)pyridin-2-yl)methyl)-5,5-dimethyl-2,4-dioxoimidazolidin-1-yl)phenyl)acetamide], for which the results for the IC50 on HDAC6 human recombinant and against HDAC1 were 35 nM and more than 10000 nM, respectively.

Take `CC(=O)N1CCc2c1cccc2N1C(=O)N(Cc2ccc(-c3nnc(C(F)F)o3)cn2)C(=O)C1(C)C` [Compound 37, 1-(1-acetylindolin-4-yl)-3-((5-(5-(difluoromethyl)-1,3,4-oxadiazol-2-yl)pyridin-2-yl)methyl)-5,5-dimethylimidazolidin-2,4-dione]: the results for the IC50 at HDAC6 human recombinant and against HDAC1 were 68 nM and more than 10000 nM, respectively.
